The text below walks through data of patent EP0739343B1, “WATER SOLUBLE ONIUM SALT OF TAXO-DITERPENOID” (THE SCRIPPS RESEARCH INSTITUTE, priority 1994, dated 1995).

One series has as its system tubulin. The series can be described thus: Tubulin (microtubule) polymerization-depolymerization measurement, turbidity at 340 nm. The series is classed as biochemical. Conditions: for calcium chloride promoted depolymerization is suppressed: tubulin 1.0 mg/mL, 1.0 mM GTP, compound 10^-6 M, CaCl2 0.25 mM added after 20 minutes, 37°C. The procedure:
Tubulin polymerization-depolymerization measurements are illustrate in Figure 3. Negative controls are shown with triangles; positive taxol controls are shown with diamonds; and taxol-2'-MPT, i.e., compound 2 is shown with dots.
More particularly, measurement were performed in 96 well plates at 37°C following the protocol of R. Merlock and W. Wrasidlo (Analytical Biochemistry 1993, in press). Calcium chloride addition is indicated by the arrow. In each case, 1.0 mM GTP was used to promote the initial polymerization of tubulin. Negative control employed tubulin (1.0 mg/mL) alone, CaCl2 (0,25 mM) added after 20 minutes. Positive taxol control employed tubulin (1.0 mg/mL) with taxol (10^-6M) and CaCl2 (0.25mM) added after 20 minutes. The experimental taxol-2'-MPT employed tubulin (1.0 mg/mL) with taxol-2'-MPT (10^-6) and CaCl2 (0.25 mM) added after 20 minutes. Turbidity was measured as optical density at 340 nm using a microplate reader (Molecular Devices Thermomax).

The nature of series [1]: Metabolic study using the tritiated compound. Particulars: tritiated 2. Format: in vivo.
The nature of series [2]: Stability and taxol release in the solid state and aqueous media, assayed by HPLC. The series is classed as physicochemical. The procedure: (§1) Due to a difference in retention time using our standard HPLC conditions (see Fig. 1) and differing ultraviolet absorption maxima (1280/1254 = 1.6 for 2 and 0.3 for 1), the stability of 2 was easily assayed by HPLC (Fig. 1). […] In phosphate buffered saline (PBS) or ammonium acetate - phosphate buffer systems of pH 6.0 to 7.3, 2 is stable at 25 °C for over 21 days. Taxol-2'-MPT (2) is, however, unstable in 5% HCl (pH 1.1) and brine.
(§2) Under these conditions 20% of total is recovered. More particularly, Taxol-2'-MPT (2) was dissolved in the aqueous system with the aid of sonication for five minutes. Aliquots were then removed at the times shown and partitioned into methylene chloride to quench the reaction. Samples were then analyzed using a Waters Maxima HPLC instrument equipped with an autoinjector (3.9x300 mm C18 column equipped with a precolumn. The flow rate was 1.5 mL/minute. The eluent gradient A-B extended over 30 minutes. "A" was 80% 80mM ammonium acetate, pH 6.0. "B" was 100% methanol. An ultraviolet diode array detector was employed. The ratio of compound 2 (Rf 16.2 min.) to taxol (compound 1, Rf 16.8 min.) remaining was determined from the relative areas of the peaks after normalization with previously determined calibration curves.

The nature of series [3]: Taxol release from the prodrug in plasma, methylene chloride extraction and HPLC. Format: in vitro ADME, human. As for the experimental part:
as §1, §2

Series [4] can be described thus: Critical aggregation concentration by UV absorption (optical density) at 340 nm. Format: physicochemical. Particulars: buffered solutions, absorption at 340 nm.
A short description of the next series: physchem. Conditions: water.
The target in another series is albumin (Homo sapiens, UniProt P02768). Particulars: serum; cited from earlier work.
[5] abbreviates: in water, 5% dextrose, and 1.5% saline.

Chain of albumin (P02768 25-609): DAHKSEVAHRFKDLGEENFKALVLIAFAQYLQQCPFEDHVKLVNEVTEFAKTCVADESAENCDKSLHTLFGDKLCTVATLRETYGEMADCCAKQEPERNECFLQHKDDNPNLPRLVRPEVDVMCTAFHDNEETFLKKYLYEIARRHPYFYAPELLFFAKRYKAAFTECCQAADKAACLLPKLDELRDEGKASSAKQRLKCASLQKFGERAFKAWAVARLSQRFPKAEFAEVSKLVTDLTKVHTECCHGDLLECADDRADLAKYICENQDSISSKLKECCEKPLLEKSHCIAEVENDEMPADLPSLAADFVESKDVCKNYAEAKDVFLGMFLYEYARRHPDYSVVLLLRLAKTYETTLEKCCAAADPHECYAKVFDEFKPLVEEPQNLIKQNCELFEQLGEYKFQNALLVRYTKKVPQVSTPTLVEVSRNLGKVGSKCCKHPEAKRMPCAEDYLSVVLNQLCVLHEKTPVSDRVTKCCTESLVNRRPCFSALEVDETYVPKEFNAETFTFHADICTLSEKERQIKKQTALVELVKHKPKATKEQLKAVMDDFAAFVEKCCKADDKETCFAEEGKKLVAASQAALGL
Method for physchem: The solubility and partition coefficient data for 2 and taxol were determined using an HPLC method.
Solubility was found by forming a solution in water with the aid of sonication for five minutes, centrifugation of the samples, and injection of the supernatant. The values reported were normalized using calibration curves constructed for both compounds by preparing known concentrations in the range 1 x 10^-6 to 1 x 10^-3 M in methylene chloride and subjecting to HPLC analysis under the same conditions. […] Partition coefficients were determined by dissolving the compound in the organic phase, shaking the resulting solution with water for ten minutes, and analyzing each phase by HPLC as above.

Regarding `CC(=O)O[C@H]1C(=O)[C@@]2(C)[C@H]([C@H](OC(=O)c3ccccc3)[C@]3(O)C[C@H](OC(=O)[C@H](Oc4cccc[n+]4C)[C@@H](NC(=O)c4ccccc4)c4ccccc4)C(C)=C1C3(C)C)[C@]1(OC(C)=O)CO[C@@H]1C[C@@H]2O` [compound 2, Taxol-2'-MPT], the “effect on tubulin-microtubule equilibria” value in the series with tubulin (buffered aqueous environment of the assay, 2 not converted to taxol) was “does not affect the tubulin-microtubule equilibria”. In the series on tubulin, the “calcium chloride promoted depolymerization is suppressed” value was “not”. The “excreted through the kidneys” value in series [1] is 5%. For the same molecule, the stability result in series [2] (5% HCl (pH 1.1) and brine) is “unstable”. Moreover, the “stability in the solid state” value in series [2] (-80 °C to 25 °C, regardless of inert atmosphere) is “completely stable”. Besides, the “stable for” value in series [2] (PBS or ammonium acetate - phosphate buffer systems of pH 6.0 to 7.3, 25 °C) was “over 21 days”. For the same molecule, in series [2] (setting [5]), the “begins to exhibit slow degradation after” value was determined as 4 days and the stability entry is reported as “stable for several days”. For the same molecule, in series [2] (sterile water, pH 6.2 phosphate buffered saline, or 5% dextrose, 25°C, period of 11 minutes), the taxol release entry is “no taxol release is observed”. In series [3] (37°C, human plasma), the “stability when incubated with human plasma” value is “breaks down rapidly”. Moreover, the “complete conversion of 2 into taxol (1)” value in series [3] (plasma treated with compound 2, methylene chloride extraction) was no more than 10 min. The “critical concentration (exponential increase in optical density)” value in series [4] was 400 µM.

In the case of `CC(=O)O[C@H]1C(=O)[C@@]2(C)[C@H]([C@H](OC(=O)c3ccccc3)[C@]3(O)C[C@H](OC(=O)[C@H](O)[C@@H](NC(=O)c4ccccc4)c4ccccc4)C(C)=C1C3(C)C)[C@]1(OC(C)=O)CO[C@@H]1C[C@@H]2O` [taxol, Taxol], the “Partition Coefficient [octanol]/[water]” value is given as greater than 10000. The solubility (as a rule, how much of the substance goes into solution per volume) in the series “physchem” is less than 1.5 µM. Besides, the “bind to albumin in sera” value on albumin is recorded as “ca. 85%”. For the same molecule, the microtubule stabilization result in the series with tubulin (taxol recovered from human plasma treated with 2) is listed as “exhibited the expected microtubule stabilization”. Also, the “calcium chloride promoted depolymerization is suppressed” value with tubulin is recorded as “suppressed”.
